Among the data in PMC11728000, “Antitumor Activity and Multi-Target Mechanism of Phenolic Schiff Bases Bearing Methanesulfonamide Fragments: Cell Cycle Analysis and a Molecular Modeling Study” (International Journal of Molecular Sciences, 2024) are GI% and IC50 values, retold here.

Assay [1] deals with HCT-15. Description: NCI anticancer screening (SRB), Colon Cancer subpanel. The conditions noted are these: 10.0 µM in one dose. The format is cell-based, human.
For assay [2], the system named is BT-549. Description: NCI anticancer screening (SRB), Breast Cancer subpanel. The format is cell-based, human. The settings on record: 10.0 µM in one dose.
Assay [3] deals with 786-0. Description: NCI anticancer screening (SRB), Renal Cancer subpanel. The format is cell-based, human. The settings on record: 10.0 µM in one dose.
In assay [4] the target is EGFR (Homo sapiens, UniProt P00533). The assay can be described thus: EGFR tyrosine kinase inhibition assay (Kinase-Glo MAX). On the technique in general: In Kinase-Glo more light means more ATP remaining.
Sequence of EGFR (P00533 25-1210): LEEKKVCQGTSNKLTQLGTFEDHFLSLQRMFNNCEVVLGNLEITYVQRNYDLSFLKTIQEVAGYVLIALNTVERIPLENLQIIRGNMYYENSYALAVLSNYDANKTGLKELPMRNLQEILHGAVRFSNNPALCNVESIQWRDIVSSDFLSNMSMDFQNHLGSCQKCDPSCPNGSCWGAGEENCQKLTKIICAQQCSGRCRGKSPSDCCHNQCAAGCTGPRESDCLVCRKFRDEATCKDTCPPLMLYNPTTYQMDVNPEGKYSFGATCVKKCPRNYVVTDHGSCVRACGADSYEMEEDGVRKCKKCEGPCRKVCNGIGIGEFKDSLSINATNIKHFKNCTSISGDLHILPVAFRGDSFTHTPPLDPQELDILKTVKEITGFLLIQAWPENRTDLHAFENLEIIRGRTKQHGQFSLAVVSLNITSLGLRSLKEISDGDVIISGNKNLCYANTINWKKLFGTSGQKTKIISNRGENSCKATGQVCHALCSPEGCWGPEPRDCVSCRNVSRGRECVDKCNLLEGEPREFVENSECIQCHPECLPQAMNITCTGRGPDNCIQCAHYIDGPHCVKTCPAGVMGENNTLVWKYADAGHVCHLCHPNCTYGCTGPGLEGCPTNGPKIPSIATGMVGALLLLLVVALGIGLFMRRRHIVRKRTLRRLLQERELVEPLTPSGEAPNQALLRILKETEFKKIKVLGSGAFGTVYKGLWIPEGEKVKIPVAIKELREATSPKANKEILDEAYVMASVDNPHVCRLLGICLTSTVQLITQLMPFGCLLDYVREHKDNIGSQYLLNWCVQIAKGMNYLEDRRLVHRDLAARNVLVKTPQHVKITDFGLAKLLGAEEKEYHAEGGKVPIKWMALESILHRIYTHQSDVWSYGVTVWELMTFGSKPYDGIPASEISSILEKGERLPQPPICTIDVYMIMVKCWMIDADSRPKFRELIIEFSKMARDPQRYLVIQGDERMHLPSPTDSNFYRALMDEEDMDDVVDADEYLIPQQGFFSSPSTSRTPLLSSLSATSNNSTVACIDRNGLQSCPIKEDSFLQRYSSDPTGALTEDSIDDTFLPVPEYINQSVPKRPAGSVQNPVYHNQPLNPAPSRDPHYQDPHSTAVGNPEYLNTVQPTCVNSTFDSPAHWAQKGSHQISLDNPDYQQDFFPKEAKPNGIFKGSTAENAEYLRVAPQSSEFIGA
For assay [5], the system named is OVCAR-4. Description: NCI anticancer screening (SRB), Ovarian Cancer subpanel. The settings on record: 10.0 µM in one dose. The format is cell-based, human.
In assay [6] the test system is DU-145. Description: NCI anticancer screening (SRB), Prostate Cancer subpanel. The format is cell-based, human. The settings on record: 10.0 µM in one dose.
The test system of assay [7] is SF-539. Description: NCI anticancer screening (SRB), CNS Cancer subpanel. The format is cell-based, human. The conditions noted are these: 10.0 µM in one dose.
The test system of assay [8] is CAKI-1. Description: NCI anticancer screening (SRB), Renal Cancer subpanel. The format is cell-based, human. The conditions noted are these: 10.0 µM in one dose.
Assay [9] has as its system K-562. The assay can be described thus: NCI anticancer screening (SRB), Leukemia subpanel. The format is cell-based, human. The conditions noted are these: 10.0 µM in one dose.
Assay [10] deals with MALME-3M. Description: NCI anticancer screening (SRB), Melanoma subpanel. The format is cell-based, human. The settings on record: 10.0 µM in one dose.
The subject of assay [11] is T-47D. The assay can be described thus: NCI anticancer screening (SRB), Breast Cancer subpanel. The settings on record: 10.0 µM in one dose. The format is cell-based, human.
In assay [12] the test system is MDA-MB-231/ATCC. The assay is described as above. The format is cell-based, human. The settings on record: 10.0 µM in one dose.
For assay [13], the system named is HCT-116. The assay can be described thus: NCI anticancer screening (SRB), Colon Cancer subpanel. The format is cell-based, human. The conditions noted are these: 10.0 µM in one dose.

What is called IC50 is the concentration that gives 50% inhibition. Higher therefore signals a need for much substance. As for `CS(=O)(=O)Nc1ccc(C(=O)NN=Cc2ccccc2O)cc1` [Compound 7], the GI% in assay [1] worked out at 67%; in assay [2] it was 27%; in [3], 25%; in assay [5], 53%; in assay [6] it was 33%; in [7] it was 40%. For the same compound, the GI% in assay [8] stood at 35%; in assay [9], 26%; in [10] it was 24%; in [11], 18%; in [12] it was 34%; in [13] it was 59%. The IC50 in assay [4] is 752 ± 50 nM.
